Data published in ChEMBL document CHEMBL2311273, “Discovery of potent, selective multidrug and toxin extrusion transporter 1 (MATE1, SLC47A1) inhibitors through prescription drug profiling and computational modeling” (J Med Chem, 2013).

Columns and labels:
[1] = biological target: T1, Solute carrier family 22 member 2 (Homo sapiens, UniProt O15244); assay: Inhibition of human OCT2-mediated ASP+ uptake expressed in HEK293 cells after 3 mins by fluorescence assay; format: cell-based
T1 sequence (O15244 whole entry): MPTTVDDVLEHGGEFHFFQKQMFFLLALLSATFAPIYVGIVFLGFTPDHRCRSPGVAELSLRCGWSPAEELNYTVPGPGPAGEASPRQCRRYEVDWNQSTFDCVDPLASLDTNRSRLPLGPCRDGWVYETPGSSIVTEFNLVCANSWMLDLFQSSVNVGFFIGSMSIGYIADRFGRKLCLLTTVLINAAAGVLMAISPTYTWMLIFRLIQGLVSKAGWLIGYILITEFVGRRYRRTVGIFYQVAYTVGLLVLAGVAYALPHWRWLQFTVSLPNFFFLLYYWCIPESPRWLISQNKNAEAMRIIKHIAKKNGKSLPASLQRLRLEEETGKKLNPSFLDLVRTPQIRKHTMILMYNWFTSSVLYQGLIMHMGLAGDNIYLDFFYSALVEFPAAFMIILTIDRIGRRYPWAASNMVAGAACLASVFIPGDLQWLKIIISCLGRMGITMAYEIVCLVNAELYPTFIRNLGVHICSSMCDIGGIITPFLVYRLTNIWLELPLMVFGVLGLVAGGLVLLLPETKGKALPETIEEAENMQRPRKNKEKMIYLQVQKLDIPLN

[2] = biological target: T2, Solute carrier family 22 member 3 (Homo sapiens, UniProt O75751); assay: Inhibition of human OCT3-mediated ASP+ uptake expressed in HEK293 cells after 3 mins by fluorescence assay; format: cell-based
T2 sequence (O75751 whole entry): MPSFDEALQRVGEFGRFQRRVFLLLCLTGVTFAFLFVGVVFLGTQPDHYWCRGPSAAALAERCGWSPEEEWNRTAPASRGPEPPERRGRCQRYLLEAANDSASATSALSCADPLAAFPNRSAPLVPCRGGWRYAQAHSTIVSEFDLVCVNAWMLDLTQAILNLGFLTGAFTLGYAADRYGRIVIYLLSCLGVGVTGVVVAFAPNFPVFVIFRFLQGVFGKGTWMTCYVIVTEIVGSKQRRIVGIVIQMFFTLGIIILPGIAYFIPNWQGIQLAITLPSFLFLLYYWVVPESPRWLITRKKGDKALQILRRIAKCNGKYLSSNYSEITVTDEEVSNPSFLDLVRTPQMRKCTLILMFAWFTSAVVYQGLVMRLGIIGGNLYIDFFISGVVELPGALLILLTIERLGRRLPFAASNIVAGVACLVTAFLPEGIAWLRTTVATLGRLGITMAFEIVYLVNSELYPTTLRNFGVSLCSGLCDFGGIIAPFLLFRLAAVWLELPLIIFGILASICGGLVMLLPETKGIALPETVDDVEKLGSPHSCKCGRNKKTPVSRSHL

[3] = biological target: T3, Solute carrier family 22 member 1 (Homo sapiens, UniProt O15245); assay: Inhibition of human OCT1-mediated ASP+ uptake expressed in HEK293 cells after 3 mins by fluorescence assay; format: cell-based
T3 sequence (O15245 whole entry): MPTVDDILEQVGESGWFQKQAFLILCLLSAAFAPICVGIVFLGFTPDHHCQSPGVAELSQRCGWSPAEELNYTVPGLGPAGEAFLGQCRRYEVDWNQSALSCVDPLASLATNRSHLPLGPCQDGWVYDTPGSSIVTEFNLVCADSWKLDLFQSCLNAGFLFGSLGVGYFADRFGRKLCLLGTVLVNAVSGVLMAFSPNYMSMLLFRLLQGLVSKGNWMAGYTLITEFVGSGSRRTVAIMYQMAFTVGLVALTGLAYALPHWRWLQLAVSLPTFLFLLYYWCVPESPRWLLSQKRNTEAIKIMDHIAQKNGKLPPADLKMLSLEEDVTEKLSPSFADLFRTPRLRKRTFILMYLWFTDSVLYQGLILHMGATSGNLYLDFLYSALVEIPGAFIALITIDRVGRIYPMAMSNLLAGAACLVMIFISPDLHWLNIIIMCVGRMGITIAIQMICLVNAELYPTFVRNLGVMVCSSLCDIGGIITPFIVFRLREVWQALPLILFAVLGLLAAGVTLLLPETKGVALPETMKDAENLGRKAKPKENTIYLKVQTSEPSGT

[4] = biological target: T4, MATE1 (multidrug and toxin extrusion protein 1) (Homo sapiens, UniProt Q96FL8); assay: (§1) Inhibition of human MATE1-mediated ASP+ uptake expressed in HEK293 cells at 20 uM after 1.5 mins by fluorescence assay; format: cell-based; settings: HEK293 cells expressing human MATE1, probe ASP+
T4 sequence (Q96FL8 whole entry): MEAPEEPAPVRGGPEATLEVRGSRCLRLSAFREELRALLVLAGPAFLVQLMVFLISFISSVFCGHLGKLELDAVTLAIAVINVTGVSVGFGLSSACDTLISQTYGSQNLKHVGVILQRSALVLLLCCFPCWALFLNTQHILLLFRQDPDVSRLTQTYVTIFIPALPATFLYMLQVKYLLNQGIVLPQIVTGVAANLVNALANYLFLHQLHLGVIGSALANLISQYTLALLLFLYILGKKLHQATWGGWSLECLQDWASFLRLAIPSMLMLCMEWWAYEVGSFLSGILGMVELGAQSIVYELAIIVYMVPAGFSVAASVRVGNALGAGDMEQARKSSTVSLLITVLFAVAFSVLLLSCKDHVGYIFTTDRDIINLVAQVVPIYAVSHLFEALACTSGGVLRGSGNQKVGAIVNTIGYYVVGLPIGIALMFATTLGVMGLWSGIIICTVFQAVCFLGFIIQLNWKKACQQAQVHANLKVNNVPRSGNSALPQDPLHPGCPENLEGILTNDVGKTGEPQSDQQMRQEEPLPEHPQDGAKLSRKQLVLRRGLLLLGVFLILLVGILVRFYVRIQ

[5] = biological target: T5, Multidrug and toxin extrusion protein 2 (Homo sapiens, UniProt Q86VL8); assay: Inhibition of human MATE2K-mediated ASP+ uptake expressed in HEK293 cells up to 500 uM after 1.5 mins by fluorescence assay; format: cell-based; settings: for INH: human, hek293, […]
T5 sequence (Q86VL8 whole entry): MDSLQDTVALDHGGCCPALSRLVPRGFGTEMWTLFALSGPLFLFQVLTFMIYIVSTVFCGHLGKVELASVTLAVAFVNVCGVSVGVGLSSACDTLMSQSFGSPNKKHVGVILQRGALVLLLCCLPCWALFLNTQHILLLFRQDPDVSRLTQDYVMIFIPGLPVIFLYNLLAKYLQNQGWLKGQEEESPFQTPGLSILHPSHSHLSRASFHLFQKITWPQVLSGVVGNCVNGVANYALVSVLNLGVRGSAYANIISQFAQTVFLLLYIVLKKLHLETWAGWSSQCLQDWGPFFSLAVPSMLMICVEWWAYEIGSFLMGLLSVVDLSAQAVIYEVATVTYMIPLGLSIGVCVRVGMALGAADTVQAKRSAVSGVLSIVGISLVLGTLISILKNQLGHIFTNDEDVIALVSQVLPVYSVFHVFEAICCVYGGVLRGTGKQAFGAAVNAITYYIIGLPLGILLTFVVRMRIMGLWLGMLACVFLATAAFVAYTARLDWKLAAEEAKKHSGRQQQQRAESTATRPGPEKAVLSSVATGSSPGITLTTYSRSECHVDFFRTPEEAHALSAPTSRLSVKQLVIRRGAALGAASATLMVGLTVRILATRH

[6] = biological target: T6, Multidrug and toxin extrusion protein 1 (Homo sapiens, UniProt Q96FL8); assay: Inhibition of human MATE1-mediated ASP+ uptake expressed in HEK293 cells after 1.5 mins by fluorescence assay; format: cell-based
T6 sequence (Q96FL8 whole entry): T4 sequence (Q96FL8 whole entry)

[7] = biological target: T5, Multidrug and toxin extrusion protein 2; assay: Inhibition of human MATE2K-mediated ASP+ uptake expressed in HEK293 cells after 1.5 mins by fluorescence assay; format: cell-based
[8] = biological target: T6, Multidrug and toxin extrusion protein 1; assay: as §1; format: cell-based; settings: hek293, […], 20 µM
[9] = Cmax in iv dosed human; format: ADME, organism-based; parameters: route intravenous; settings: in vivo
[10] = Cmax in human at 40 mg, po after 7 days; format: ADME, organism-based; parameters: dose 40 mg, route oral; settings: in vivo
[11] = biological target: T6, Multidrug and toxin extrusion protein 1; assay: Inhibition of human MATE1-mediated [14]-metformin uptake expressed in HEK293 cells after 1.5 mins by scintillation counting analysis; format: cell-based
[12] = biological target: T6, Multidrug and toxin extrusion protein 1; assay: Inhibition of human MATE1-mediated [14]-metformin uptake expressed in polarized MDCK2 cells after 5 mins by liquid scintillation counting analysis; format: cell-based, MDCK-II

Compound | IC50 [1] | IC50 [2] | IC50 [3] | IC50 [6] | IC50 [7] | also measured
O=C1c2c(O)ccc(O)c2C(=O)c2c(NCCNCCO)ccc(NCCNCCO)c21 [MITOXANTRONE] | 73.3 µM | 60.5 µM | 43.9 µM |  |  | 
COc1ccccc1OCCNCC(O)COc1cccc2[nH]c3ccccc3c12 (stereo unspecified) [CARVEDILOL] | 7.5 µM |  |  | 92.4 µM |  | inhibition at […], 20 µM [4]: 21%; INH [5]: Not Active
CC(C)(C)NC(=O)[C@@H]1CN(Cc2cccnc2)CCN1C[C@@H](O)C[C@@H](Cc1ccccc1)C(=O)N[C@H]1c2ccccc2C[C@H]1O | 142 µM | > 500 µM | 208 µM |  |  | 
NC(N)=Nc1nc(CSCCC(N)=NS(N)(=O)=O)cs1 [FAMOTIDINE] | 36.1 µM | 10.7 µM | > 300 µM | 0.76 µM | 36.2 µM | 
COc1ccc2c(c1OC)C(=O)O[C@@H]2[C@H]1c2c(cc3c(c2OC)OCO3)CCN1C [NOSCAPINE] | 2.6 µM |  |  |  |  | inhibition at […], 20 µM [4]: 13.4%; INH [5]: Not Active
CCc1c2c(nc3ccc(OC(=O)N4CCC(N5CCCCC5)CC4)cc13)-c1cc3c(c(=O)n1C2)COC(=O)[C@]3(O)CC [IRINOTECAN] | 2.7 µM | 74.6 µM | 20.8 µM |  |  | inhibition at […], 20 µM [4]: 49%

Second part, led by results:

IC50 [1] | IC50 [2] | IC50 [3] | Compound | IC50 [6] | IC50 [7] | also measured
1.2 µM | 9.5 µM | 22.1 µM | N=C(N)c1ccc(OCCCCCOc2ccc(C(=N)N)cc2)cc1 [PENTAMIDINE] |  |  | 
0.4 µM | 0.41 µM | 0.21 µM | [H]/N=C(\N/C(=N/[H])NCCCCCCNC(=N)NC(=N)Nc1ccc(Cl)cc1)Nc1ccc(Cl)cc1 [CHLORHEXIDINE] | 0.7 µM | 0.5 µM | INH [8]: 86%
 | 17.4 µM | > 300 µM | Cc1nccn1CC1CCc2c(c3ccccc3n2C)C1=O (stereo unspecified) [ONDANSETRON] |  |  | 
1.9 µM | 5.5 µM | 3.9 µM | Oc1c(Cl)cc(Cl)cc1Sc1cc(Cl)cc(Cl)c1O [BITHIONOL] |  | 6.6 µM | INH [8]: 87%
10.3 µM | 146 µM | > 300 µM | Cn1c(NCCN(CCO)CCCc2ccc([N+](=O)[O-])cc2)cc(=O)n(C)c1=O [NIFEKALANT] |  |  | Cmax [9]: 3.43 µM
1.5 µM | 137 µM | > 500 µM | COc1ccnc(C[S+]([O-])c2nc3ccc(OC(F)F)cc3[nH]2)c1OC (stereo unspecified) [PANTOPRAZOLE] | 43.2 µM | > 500 µM | IC50 [5]: 43.2 µM; Cmax [10]: 5.45 µM; IC50 [11]: 2.8 µM; IC50 [12]: 2.8 µM
